Earlier results on one substance are cited in US20230181510A1, “COMPOSITION AND METHODS OF RETINOIC ACID” (priority 2020, published 2023).

In one data set the test system is collagen. To be noted: topical treatment.
For another data set, the system named is human skin. To be noted: topical stabilized treatment, human skin in vitro and in vivo.

retinoic acid: the Collagen regeneration result with collagen is on record as “stimulates collagen regeneration”. Moreover, the “Expression of HAS genes and HA production” value with human skin was “induce the expression of hyaluronic acid (HA) synthase (HAS) genes and HA production”.
